Here are results for one molecule from patent US20190210996A1, “NOVEL COMPOUNDS” (GLAXOSMITHKLINE INTELLECTUAL PROPERTY DEVELOPMENT LIMITED, priority 2016, published 2019).

Common to all, as to type: cell-based
One test addresses T1, PRKAA1 (Homo sapiens, UniProt Q13131).
T1 construct: endogenous in cells; host or cells: THP-1
Nature of the test: Expression proteomics in THP-1 cells: PRKAA1 protein level. Particulars: PRKAA1, THP-1 cells. The procedure:
(§1) THP-1 cells were seeded at a concentration of 3×10^6 cells in T175 flasks with 60 mL growth medium (RPMI1640+10% FBS). […] of a 10× compound solution prepared in growth medium (DMSO), CEREBLON_PROTAC) was added and the cells were treated for the indicated time points (6 or 24 h) at 37° C., 5% CO2. For harvesting the cells were collected into falcon tubes on ice, centrifuged and washed twice in cold PBS (Life technologies). After the last washing step the supernatant was removed and the pellets were snap-frozen in liquid N2 and stored at −80° C. and lysed in 2% SDS for 3 min at 95° C. in a thermomixer (Thermo Fisher Scientific), followed by digestion of DNA with Benzonase at 37° C. for 1.5 h. Lysate was cleared by centrifugation an protein concentration in supernatant was determined by BCA assay.
(§2) Leukemia 25, 89-100 (2011).
(§3) Samples were dried in vacuo and resuspended in 0.05% trifluoroacetic acid in water. Of the sample, 50% was injected into an Ultimate3000 nanoRLSC (Dionex, Sunnyvale, Calif.) coupled to a Q Exactive HF (Thermo Fisher Scientific). Peptides were trapped on a 5 mm×300 μm C18 column (Pepmap100, 5 μm, 300 Å, Thermo Fisher Scientific) in water with 0.05% TFA at 60° C. Separation was performed on custom 50 cm×[…] (ID) reversed-phase columns (Reprosil) at 55° C. Gradient elution was performed from 2% acetonitrile to 40% acetonitrile in 0.1% formic acid and 3.5% DMSO over 2 hours. Samples were online injected into Q-Exactive HF mass spectrometers operating with a data-dependent top 10 method. MS spectra were acquired by using 60.000 resolution and an ion target of 3×10^6. Higher energy collisional dissociation (HCD) scans were performed with 35% NCE at 30.000 resolution (at m/z 200), and the ion target settings was set to 2×10^5 so as to avoid coalescence (Werner, T. et al. Ion Coalescence of Neutron Encoded TMT 10-Plex Reporter Ions. Anal. Chem. 86, 3594-3601 (2014).
(§4) The first search was performed with 30 parts per million mass tolerance for peptide precursors and 30 mD (HCD) mass tolerance for fragment ions followed by a final search using recalibrated data with a 10 parts per million mass tolerance for peptide precursors and 20 mD (HCD) mass tolerance for fragment ions. Carbamidomethylation of cysteine residues and TMT modification of lysine residues were set as fixed modifications and methionine oxidation, and N-terminal acetylation of proteins and TMT modification of peptide N-termini were set as variable modifications. […]
(§5) Nat Biotech 29, 255-265 (2011). this measure is referred to as ion area Savitski, M. M. et al. Delayed Fragmentation and Optimized Isolation Width Settings for Improvement of Protein Identification and Accuracy of Isobaric Mass Tag Quantification on Orbitrap-Type Mass Spectrometers. […]

A further test concerns the target T2, MAPK9 (Homo sapiens, UniProt P45984).
T2 construct: endogenous in cells; host or cells: THP-1
Nature of the test: Expression proteomics in THP-1 cells: MAPK9 protein level. The note with it: MAPK9, THP-1 cells. As for the experimental part: as §1, §2, §3, §4, §5

For another test, the target named is T3, TEC (Homo sapiens, UniProt P42680).
T3 construct: endogenous in cells; host or cells: THP-1
T3 sequence (P42680 1-631): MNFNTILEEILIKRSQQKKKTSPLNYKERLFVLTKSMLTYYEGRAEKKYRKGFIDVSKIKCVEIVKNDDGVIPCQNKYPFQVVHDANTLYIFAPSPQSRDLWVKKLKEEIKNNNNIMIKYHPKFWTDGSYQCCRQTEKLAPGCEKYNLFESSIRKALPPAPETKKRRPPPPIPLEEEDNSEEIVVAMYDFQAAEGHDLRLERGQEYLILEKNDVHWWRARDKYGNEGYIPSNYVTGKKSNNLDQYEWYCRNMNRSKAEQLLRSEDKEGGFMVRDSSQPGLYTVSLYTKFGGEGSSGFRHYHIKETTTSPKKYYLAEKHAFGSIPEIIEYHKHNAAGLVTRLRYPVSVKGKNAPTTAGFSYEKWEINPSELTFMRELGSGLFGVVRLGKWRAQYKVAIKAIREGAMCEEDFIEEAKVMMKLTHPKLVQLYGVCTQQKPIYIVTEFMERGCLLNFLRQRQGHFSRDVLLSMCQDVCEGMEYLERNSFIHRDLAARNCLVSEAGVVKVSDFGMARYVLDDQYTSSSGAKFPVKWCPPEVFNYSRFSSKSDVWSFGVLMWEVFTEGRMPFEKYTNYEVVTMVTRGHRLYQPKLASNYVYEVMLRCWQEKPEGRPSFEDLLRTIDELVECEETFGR
Nature of the test: Expression proteomics in THP-1 cells: TEC protein level. The procedure: as §1, §2, §3, §4, §5

Molecules are shown by their SMILES.

T2 sequence (P45984 whole entry): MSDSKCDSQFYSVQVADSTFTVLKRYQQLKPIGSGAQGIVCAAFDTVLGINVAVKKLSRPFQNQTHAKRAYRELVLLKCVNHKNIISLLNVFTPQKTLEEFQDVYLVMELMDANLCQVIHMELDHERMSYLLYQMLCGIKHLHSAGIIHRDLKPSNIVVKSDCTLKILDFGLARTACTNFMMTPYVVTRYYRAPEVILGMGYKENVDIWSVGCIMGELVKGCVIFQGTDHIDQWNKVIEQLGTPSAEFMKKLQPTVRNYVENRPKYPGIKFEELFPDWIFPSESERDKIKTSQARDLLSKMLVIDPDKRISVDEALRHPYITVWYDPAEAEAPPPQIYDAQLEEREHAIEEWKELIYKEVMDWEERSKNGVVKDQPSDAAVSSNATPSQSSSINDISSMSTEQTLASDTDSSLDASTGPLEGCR
T1 sequence (Q13131 whole entry): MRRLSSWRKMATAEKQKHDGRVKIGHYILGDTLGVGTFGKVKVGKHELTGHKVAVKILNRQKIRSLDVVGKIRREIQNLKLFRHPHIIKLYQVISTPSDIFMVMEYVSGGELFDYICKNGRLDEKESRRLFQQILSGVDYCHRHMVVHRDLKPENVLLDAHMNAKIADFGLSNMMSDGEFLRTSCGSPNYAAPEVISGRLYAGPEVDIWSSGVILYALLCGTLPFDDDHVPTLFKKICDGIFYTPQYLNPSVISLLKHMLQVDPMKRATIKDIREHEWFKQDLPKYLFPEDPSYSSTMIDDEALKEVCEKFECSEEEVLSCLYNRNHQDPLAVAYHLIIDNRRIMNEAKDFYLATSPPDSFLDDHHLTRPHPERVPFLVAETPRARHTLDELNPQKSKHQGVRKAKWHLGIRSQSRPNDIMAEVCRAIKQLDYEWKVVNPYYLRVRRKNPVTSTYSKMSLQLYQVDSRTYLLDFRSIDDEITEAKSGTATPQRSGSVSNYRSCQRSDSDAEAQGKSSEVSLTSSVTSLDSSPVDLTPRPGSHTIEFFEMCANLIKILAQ
T1 sequence (Q9Y478 2-270 partner limits assumed): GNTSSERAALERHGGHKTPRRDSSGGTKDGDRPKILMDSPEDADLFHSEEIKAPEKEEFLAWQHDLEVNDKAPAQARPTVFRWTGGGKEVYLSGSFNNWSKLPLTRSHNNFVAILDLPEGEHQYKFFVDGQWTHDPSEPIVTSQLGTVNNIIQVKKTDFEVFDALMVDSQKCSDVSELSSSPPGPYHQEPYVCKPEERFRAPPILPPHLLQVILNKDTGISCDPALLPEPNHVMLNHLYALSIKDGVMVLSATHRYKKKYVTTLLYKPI
T1 sequence (P54619 whole entry partner): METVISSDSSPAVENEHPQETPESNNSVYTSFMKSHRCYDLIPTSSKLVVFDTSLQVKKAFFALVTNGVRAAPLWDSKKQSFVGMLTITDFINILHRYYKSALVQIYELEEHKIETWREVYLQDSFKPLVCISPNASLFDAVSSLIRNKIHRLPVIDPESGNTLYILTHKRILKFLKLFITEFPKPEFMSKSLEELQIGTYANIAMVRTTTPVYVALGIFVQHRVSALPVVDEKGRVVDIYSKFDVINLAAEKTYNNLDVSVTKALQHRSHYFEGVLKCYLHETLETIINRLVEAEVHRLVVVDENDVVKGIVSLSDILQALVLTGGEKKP

For the molecule `CNC(=O)c1ccccc1Nc1nc(Nc2ccc(N3CCN(CCOCCOCCOCCOCC(=O)Nc4cccc5c4CN(C4CCC(=O)NC4=O)C5=O)CC3)cc2)ncc1Cl.O=CO` (stereo not drawn) [CEREBLON_PROTAC, 14-(4-(4-((5-Chloro-4-((2-(methylcarbamoyl)phenyl)amino)pyrimidin-2-yl)amino)phenyl)piperazin-1-yl)-N-(2-(2,6-dioxopiperidin-3-yl)-1-oxoisoindolin-4-yl)-3,6,9,12-tetraoxatetradecan-1-amide formate], the “log2 rel. fc. to vehicle control” value on PRKAA1 (24 h 0.1 μM, n = 1) is −0.38; on PRKAA1 (24 h 0.1 μM, n = 2), −0.74; on PRKAA1 (24 h 1 μM, n = 1), −1.06; on PRKAA1 (24 h 1 μM, n = 2), −1.35; at MAPK9 (24 h 0.1 μM, n = 1), −0.69; at MAPK9 (24 h 0.1 μM, n = 2) it was −0.98. In addition, the “log2 rel. fc. to vehicle control” value on MAPK9 (24 h 1 μM, n = 1) is −1.83; at MAPK9 (24 h 1 μM, n = 2) it was −1.75; at TEC (24 h 0.1 μM, n = 1), −1.83; at TEC (24 h 0.1 μM, n = 2), −2.38; on TEC (24 h 1 μM, n = 1) it was −1.74; on TEC (24 h 1 μM, n = 2), −1.94.
